Measured values taken from paper PMC9468336, “The choanoflagellate pore-forming lectin SaroL-1 punches holes in cancer cells by targeting the tumor-related glycosphingolipid Gb3” (Communications Biology, 2022).
Read-outs that look alike come from different tables or passages of the source.

Legend:
[1] = target: T1, hemolytic activity of SaroL-1 on rabbit erythrocytes (Salpingoeca rosetta, UniProt F2UID9); experiment: Inhibition of hemolytic activity (IHA) of SaroL-1 by carbohydrates; type: cell-based; settings: for inhibition: SaroL-1 217 nM, read-out: Mean % inhibition of hemolysis
T1 sequence (F2UID9 1-329): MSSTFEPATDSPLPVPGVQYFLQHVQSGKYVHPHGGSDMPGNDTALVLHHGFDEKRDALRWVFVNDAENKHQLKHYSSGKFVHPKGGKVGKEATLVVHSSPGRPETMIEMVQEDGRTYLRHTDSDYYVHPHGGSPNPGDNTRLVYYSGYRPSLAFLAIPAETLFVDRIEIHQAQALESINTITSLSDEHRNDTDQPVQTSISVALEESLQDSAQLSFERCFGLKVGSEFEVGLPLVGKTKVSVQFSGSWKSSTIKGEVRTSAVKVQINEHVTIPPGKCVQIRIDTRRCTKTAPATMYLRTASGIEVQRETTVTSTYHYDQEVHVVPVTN
Experimental: (§1) Both HA and IHA assays were performed in U-shaped 96-well microtiter plates. In both cases, a control negative experiment was performed with Buffer A added to erythrocyte solution (2% final concentration), and the resulting value was subtracted from all data.
(§2) IHA was performed in U-shaped 96-well microtiter plates. […] 4% rabbit erythrocytes were added to the mixture in a 1:1 ratio and incubated for 1–2 h at 37 °C. The samples were centrifuged, 2600 × g for 15 min at RT, and the absorbance of the supernatant was measured at 540 nm by a Tecan reader.

SaroL-1 [2] = target: T2, SaroL-1 (Salpingoeca rosetta, UniProt F2UID9); experiment: Isothermal titration calorimetry (MicroCal iTC200) at 25 °C in 20 mM Tris/HCl pH 7.5, 100 mM NaCl, ligand titrated into SaroL-1, one-site model with stoichiometry N fixed to 3.; type: binding
T2 construct: gene PTSG_08235; monomeric in solution
Experimental: Isothermal Titration Calorimetry (ITC)
ITC experiments were performed with MicroCaliTC200 (Malvern Panalytical). Experiments were carried out at 25 °C ± 0.1 °C. SaroL-1 and ligands samples were prepared in Buffer A. The ITC cell contained SaroL-1 in a concentration range from 0.05 mM to 0.16 mM. The syringe contained the ligand solutions in a concentration from 10 to 50 mM. 2 μL of ligands solutions were injected into the sample cell at intervals of 120 s while stirring at 750 rpm. Integrated heat effects were analysed by nonlinear regression using one site binding model (MicroCal PEAQ-ITC Analysis software). The experimental data were fitted to a theoretical curve, which gave the dissociation constant (Kd) and the enthalpy of binding (∆H).

SaroL-1 [3] = target: T2, SaroL-1; experiment: Inhibition of SaroL-1 (217 nM) induced hemolysis of rabbit erythrocytes after 1 h pre-incubation of lectin with sugar at RT, then 1-2 h at 37 °C, absorbance of supernatant at 540 nm.; type: cell-based; settings: n = 2
Experimental: Hemolytic assay (HA) and inhibition of hemolytic activity (IHA)
as §1, §2

SaroL-1 [4] = experiment: Isothermal titration calorimetry of galactosyl-ligands with SaroL-1; type: binding, Salpingoeca rosetta; settings: ITC

| SMILES | inhibition ([1]; sugar 0.003 mM) | inhibition ([1]; sugar 0.006 mM) | inhibition ([1]; sugar 0.0125 mM) | inhibition ([1]; sugar 0.025 mM) | inhibition ([1]; sugar 0.05 mM) | inhibition ([1]; sugar 0.1 mM) | inhibition ([1]; sugar 0.2 mM) | inhibition ([1]; sugar 0.4 mM) | inhibition ([1]; sugar 0.8 mM) | inhibition ([1]; sugar 1.6 mM) | inhibition ([1]; sugar 3.125 mM) | inhibition ([1]; sugar 6.25 mM) | inhibition ([1]; sugar 12.5 mM) | inhibition ([1]; sugar 25 mM) | inhibition ([1]; sugar 50 mM) | Kd (SaroL-1 [2]) | IC50 (SaroL-1 [3]) | IC50 ([1]; SaroL-1 217 nM pre-incubated with carbohydrate, read-out: IC50 of inhibition of hemolysis) | binding to SaroL-1 (in words) (SaroL-1 [4]) | inhibition of hemolysis (in words) ([1]; 10 mM carbohydrate) |
| --- | --- | --- | --- | --- | --- | --- | --- | --- | --- | --- | --- | --- | --- | --- | --- | --- | --- | --- | --- | --- |
| CC(=O)N[C@H]1C(O)O[C@H](CO)[C@H](O)[C@@H]1O (stereo partly shown) [GalNAc, N-acetylgalactosamine] | 3.76% | 7.37% | 8.89% | 4% | 2.33% | 6.61% | 6.57% | 9.48% | 14.5% | 27.3% | 42.5% | 64% | 83.1% | 98.8% | 100% | 2.76 mM | 4.9 mM | – | – | – |
| CO[C@H]1O[C@H](CO)[C@H](O)[C@H](O)[C@H]1O [GalαOMe, α-methyl galactoside] | – | – | – | – | – | – | – | – | – | – | – | – | – | – | – | 2.17 mM | – | – | – | – |
| OC[C@H]1O[C@@H](O[C@H]2[C@H](O)[C@@H](O)[C@H](O)O[C@@H]2CO)[C@H](O)[C@@H](O)[C@H]1O [Lactose, lactose] | – | – | – | – | – | – | – | – | – | – | – | – | – | – | – | – | – | 11.9 mM | very weak binding | – |
| OC[C@H]1O[C@H](OCC2O[C@@H](O)[C@H](O)[C@@H](O)[C@@H]2O)[C@H](O)[C@@H](O)[C@H]1O (stereo partly shown) [melibiose] | 0.665% | 2.27% | 3.73% | 7.43% | 7.01% | 9.7% | 15.2% | 22.7% | 36.1% | 54.5% | 76.3% | 91.8% | 100% | 100% | 100% | – | – | – | – | complete inhibition |
| OC[C@H]1O[C@H](O[C@H]2[C@@H](O)[C@@H](CO)OC(O)[C@@H]2O)[C@H](O)[C@@H](O)[C@H]1O (stereo partly drawn) [αGal1-3Gal, α-D-galactopyranosyl-(1-3)-D-galactose] | – | – | – | – | – | – | – | – | – | – | – | – | – | – | – | 1.38 mM | – | – | – | – |
